According to the NIST ThermoML archive (doi:10.1016/j.jct.2004.11.023):
± gives the expanded uncertainty stated by the source.

Assay: xn = mol fraction of the nth substance listed
Conditions: 101 kPa, Liquid, Vibrating tube method

CC(=O)c1ccccc1 [acetophenone] + Cc1cc(C)cc(C)c1
mass density [kg/m3]
Conditions	298.15 K	328.15 K
x2 = 0	1023.13 ± 0.52	996.99 ± 0.51
x2 = 0.09015	1006.63 ± 0.51	980.65 ± 0.5
x2 = 0.185	989.75 ± 0.5	963.9 ± 0.49
x2 = 0.2674	975.43 ± 0.5	949.71 ± 0.48
x2 = 0.358	960.07 ± 0.49	934.46 ± 0.48
x2 = 0.4569	943.72 ± 0.48	918.28 ± 0.47
x2 = 0.5358	930.98 ± 0.48	905.65 ± 0.46
x2 = 0.6409	914.41 ± 0.47	889.25 ± 0.46
x2 = 0.7322	900.4 ± 0.46	875.38 ± 0.45
x2 = 0.836	884.84 ± 0.45	860 ± 0.44
x2 = 0.8961	876.03 ± 0.45	851.31 ± 0.44

Cc1ccccc1 [toluene] + CC(=O)c1ccccc1
x1 = 1
Conditions	mass density [kg/m3]
298.15 K	862.27 ± 0.16
328.15 K	834.26 ± 0.16

CC(=O)c1ccccc1 [acetophenone] + Cc1ccccc1
mass density [kg/m3]
Conditions	298.15 K	328.15 K
x2 = 0	1023.12 ± 0.52	997.01 ± 0.51
x2 = 0.1016	1008.8 ± 0.48	982.57 ± 0.46
x2 = 0.1982	994.83 ± 0.44	968.48 ± 0.43
x2 = 0.257	986.17 ± 0.41	959.73 ± 0.4
x2 = 0.3576	971 ± 0.37	944.41 ± 0.36
x2 = 0.453	956.2 ± 0.33	929.46 ± 0.33
x2 = 0.5369	942.81 ± 0.3	915.9 ± 0.3
x2 = 0.6366	926.48 ± 0.27	899.39 ± 0.26
x2 = 0.7154	913.19 ± 0.24	885.89 ± 0.24
x2 = 0.8198	895.09 ± 0.21	867.55 ± 0.21
x2 = 0.9019	880.36 ± 0.18	852.62 ± 0.18

Cc1cc(C)cc(C)c1 [1,3,5-trimethylbenzene] + CC(=O)c1ccccc1
x1 = 1
Conditions	mass density [kg/m3]
298.15 K	861.13 ± 0.44
328.15 K	836.63 ± 0.43

CC(=O)c1ccccc1 [acetophenone] + Cc1cccc(C)c1
mass density [kg/m3]
Conditions	298.15 K	328.15 K
x2 = 0	1023.12 ± 0.52	996.98 ± 0.51
x2 = 0.09263	1007.97 ± 0.51	981.88 ± 0.5
x2 = 0.1807	993.62 ± 0.5	967.52 ± 0.49
x2 = 0.2662	979.65 ± 0.5	953.61 ± 0.49
x2 = 0.3566	964.94 ± 0.49	938.89 ± 0.48
x2 = 0.4525	949.31 ± 0.48	923.26 ± 0.47
x2 = 0.538	935.34 ± 0.48	909.32 ± 0.47
x2 = 0.6252	921.13 ± 0.47	895.13 ± 0.46
x2 = 0.7339	903.38 ± 0.46	877.43 ± 0.45
x2 = 0.8479	884.76 ± 0.45	858.85 ± 0.44
x2 = 0.8943	877.15 ± 0.45	851.29 ± 0.44

Cc1cccc(C)c1 [1,3-dimethylbenzene] + CC(=O)c1ccccc1
x1 = 1
Conditions	mass density [kg/m3]
298.15 K	859.88 ± 0.44
328.15 K	834.12 ± 0.43

CC(=O)c1ccccc1 [acetophenone] + c1ccccc1
mass density [kg/m3]
Conditions	298.15 K	328.15 K
x2 = 0	1023.11 ± 0.52	997 ± 0.51
x2 = 0.1057	1011.02 ± 0.48	984.62 ± 0.46
x2 = 0.186	1001.34 ± 0.44	974.7 ± 0.43
x2 = 0.2855	988.94 ± 0.4	961.91 ± 0.39
x2 = 0.3792	976.58 ± 0.37	949.15 ± 0.36
x2 = 0.4626	964.98 ± 0.33	937.16 ± 0.33
x2 = 0.5484	952.49 ± 0.3	924.19 ± 0.3
x2 = 0.6248	940.71 ± 0.27	911.99 ± 0.27
x2 = 0.7289	923.84 ± 0.24	894.3 ± 0.23
x2 = 0.8003	911.56 ± 0.22	881.44 ± 0.21
x2 = 0.8953	894.23 ± 0.19	863.18 ± 0.19

c1ccccc1 [benzene] + CC(=O)c1ccccc1
x1 = 1
Conditions	mass density [kg/m3]
298.15 K	873.64 ± 0.16
328.15 K	841.51 ± 0.16
